Test results from patent US8148391B2 (Cephalon, Inc., priority 2006, dated 2012).
Like-named read-outs stand apart in the source and are kept apart here. Values belong to the compound of their own block, whether it stands above or below them.

Tests used:
[1] = molecular target: T1, baculovirus-expressed ALK (Homo sapiens, UniProt Q9UM73); assay: ALK Kinase Assay (ELISA-type, time-resolved fluorescence); assay type: biochemical
T1 construct: host or cells: baculovirus expression system
Summary of the method: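 Substrate coating: phospholipase C-γ, 10 μg/mL in TBS. Kinase step: 30 ng/ml ALK, 15 min, 37° C. Detection and analysis: Eu-N1 PT66 antibody, with IC50 fitted as a sigmoidal variable-slope dose-response curve.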

[2] = molecular target: T2, c-Met (cytoplasmic domain) (Homo sapiens, UniProt P08581); assay: c-Met Kinase Assay (same methods as for ALK, with modifications); assay type: biochemical
T2 construct: 10 ng/mL c-Met (cytoplasmic domain, Invitrogen Corporation #PV3143); purchased Invitrogen Corporation PV3143
T2 sequence (P08581 956-1390 limits assumed): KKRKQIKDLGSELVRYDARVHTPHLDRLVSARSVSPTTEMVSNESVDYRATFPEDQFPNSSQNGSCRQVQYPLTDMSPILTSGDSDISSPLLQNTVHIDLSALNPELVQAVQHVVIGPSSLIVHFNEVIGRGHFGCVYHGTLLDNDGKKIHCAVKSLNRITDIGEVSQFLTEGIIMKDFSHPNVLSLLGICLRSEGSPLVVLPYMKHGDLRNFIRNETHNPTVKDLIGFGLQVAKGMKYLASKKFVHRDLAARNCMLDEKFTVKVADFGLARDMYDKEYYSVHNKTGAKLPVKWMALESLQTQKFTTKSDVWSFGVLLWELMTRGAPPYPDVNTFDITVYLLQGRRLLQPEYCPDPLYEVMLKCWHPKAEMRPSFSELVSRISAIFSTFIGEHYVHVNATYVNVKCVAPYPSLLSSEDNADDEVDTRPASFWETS
Summary of the method: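 Wells were coated with 10 μg/mL phospholipase C-γ substrate in TBS, and reactions were started with 10 ng/mL c-Met cytoplasmic domain and run at 37° C for 15 minutes. Phosphorylated product was detected with Eu-N1-labeled PT66 antibody. IC50 values came from sigmoidal variable-slope fits of percent inhibition versus log compound concentration.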

[3] = ALK kinase inhibition, 1 μM ATP (Km level), read-out: ALK Activity
[4] = c-Met kinase inhibition, 1 μM ATP (Km level), read-out: cMet Activity
[5] = ALK kinase inhibition, 1 μM ATP, read-out: ALK Activity
[6] = c-Met kinase inhibition, 1 μM ATP, read-out: cMet Activity
[7] = 1 μM ATP (Km level), 30 ng/ml ALK, 37° C., 15 minutes, read-out: ALK Activity (ALK kinase inhibition, IC50 class)
[8] = 1 μM ATP (Km level), 10 ng/mL c-Met, read-out: cMet Activity (c-Met kinase inhibition, IC50 class)
[9] = 1 μM ATP (Km level), read-out: ALK Activity (ALK Kinase Inhibition, IC50)
[10] = 1 μM ATP (Km level), read-out: cMet Activity (c-Met Kinase Inhibition, IC50)

T1 sequence (Q9UM73 19-1620): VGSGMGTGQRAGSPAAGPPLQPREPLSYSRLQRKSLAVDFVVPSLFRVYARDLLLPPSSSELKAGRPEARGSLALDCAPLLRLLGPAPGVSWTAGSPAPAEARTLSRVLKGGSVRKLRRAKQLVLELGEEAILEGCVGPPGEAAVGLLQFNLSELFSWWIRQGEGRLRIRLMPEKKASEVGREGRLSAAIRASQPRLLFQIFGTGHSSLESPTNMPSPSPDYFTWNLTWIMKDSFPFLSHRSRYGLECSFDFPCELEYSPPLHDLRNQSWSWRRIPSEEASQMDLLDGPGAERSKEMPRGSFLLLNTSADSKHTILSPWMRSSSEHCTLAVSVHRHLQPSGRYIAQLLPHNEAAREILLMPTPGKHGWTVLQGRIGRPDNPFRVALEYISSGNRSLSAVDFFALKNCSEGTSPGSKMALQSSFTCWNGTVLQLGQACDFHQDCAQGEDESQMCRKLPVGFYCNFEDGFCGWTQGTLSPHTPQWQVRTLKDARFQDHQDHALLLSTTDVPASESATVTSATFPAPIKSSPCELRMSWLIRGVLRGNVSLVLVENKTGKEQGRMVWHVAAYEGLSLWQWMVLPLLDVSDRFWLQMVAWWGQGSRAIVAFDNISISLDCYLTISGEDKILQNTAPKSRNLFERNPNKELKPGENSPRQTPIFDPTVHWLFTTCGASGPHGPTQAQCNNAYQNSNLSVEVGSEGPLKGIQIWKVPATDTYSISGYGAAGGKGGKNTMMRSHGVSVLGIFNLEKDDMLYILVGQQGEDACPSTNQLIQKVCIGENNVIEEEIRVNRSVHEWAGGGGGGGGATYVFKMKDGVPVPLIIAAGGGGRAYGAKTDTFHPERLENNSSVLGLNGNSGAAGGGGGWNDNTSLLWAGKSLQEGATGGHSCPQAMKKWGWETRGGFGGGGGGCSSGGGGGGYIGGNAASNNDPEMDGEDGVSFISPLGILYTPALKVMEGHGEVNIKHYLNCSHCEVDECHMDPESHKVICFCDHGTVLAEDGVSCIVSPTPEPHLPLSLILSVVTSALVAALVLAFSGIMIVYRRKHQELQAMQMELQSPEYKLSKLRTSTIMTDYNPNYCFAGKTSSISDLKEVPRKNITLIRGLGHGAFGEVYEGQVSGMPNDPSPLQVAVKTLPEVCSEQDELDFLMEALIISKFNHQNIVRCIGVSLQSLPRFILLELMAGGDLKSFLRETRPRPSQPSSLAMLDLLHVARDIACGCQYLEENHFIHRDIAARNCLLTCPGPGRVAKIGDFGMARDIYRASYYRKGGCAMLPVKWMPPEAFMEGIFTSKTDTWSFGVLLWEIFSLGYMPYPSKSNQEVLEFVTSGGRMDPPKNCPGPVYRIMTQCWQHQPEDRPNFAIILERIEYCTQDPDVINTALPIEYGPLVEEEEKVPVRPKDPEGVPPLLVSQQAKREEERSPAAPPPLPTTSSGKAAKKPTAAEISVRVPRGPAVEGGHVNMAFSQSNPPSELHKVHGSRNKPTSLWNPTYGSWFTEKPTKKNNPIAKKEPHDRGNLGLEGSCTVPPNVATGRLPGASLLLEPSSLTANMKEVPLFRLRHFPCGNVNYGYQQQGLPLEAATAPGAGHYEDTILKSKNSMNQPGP

IC50 [1, 3]: < 100 nM
IC50 [2, 4]: < 100 nM
Compound: C#CCN1CCN(C)c2cc(Nc3ncc(Cl)c(Nc4ccccc4C(=O)N(C)CC#C)n3)ccc2C1 [Example 488, 2-[5-Chloro-2-(1-methyl-4-prop-2-ynyl-2,3,4,5-tetrahydro-1H-benzo[e][1,4]diazepin-8-ylamino)-pyrimidin-4-ylamino]-N-methyl-N-prop-2-ynyl-benzamide]

IC50 [1, 5]: < 100 nM
IC50 [2, 6]: > 10000 nM
Compound: CC(C)N1CCCC(C)(C)c2ccc(Nc3ncc(Cl)c(N[C@H]4[C@@H](C(N)=O)[C@@H]5C=C[C@H]4C5)n3)cc21 [Example 1628, (1S,2S,3R,4R)-3-[5-Chloro-2-(1-isopropyl-5,5-dimethyl-2,3,4,5-tetrahydro-1H-benzo[b]azepin-8-ylamino)-pyrimidin-4-ylamino]-bicyclo[2.2.1]hept-5-ene-2-carboxylic acid amide]

Compound: CNC(=O)c1ccccc1Nc1nc(Nc2ccc3c(c2)C2CCC(C3)N2CCOC)ncc1Cl (centres unmarked) [Example 68, 2-{5-Chloro-2-[12-(2-methoxy-ethyl)-12-aza-tricyclo[7.2.1.0*2,7*]dodeca-2(7),3,5-trien-4-ylamino]-pyrimidin-4-ylamino}-N-methyl-benzamide]
IC50 [1, 3]: < 100 nM
IC50 [2, 4]: < 100 nM

IC50 [1, 5]: 100 to 1000 nM
IC50 [2, 6]: < 100 nM
Compound: CNC(=O)c1scc(C)c1Nc1nc(Nc2ccc3c(c2)-n2ccnc2CCC3)ncc1Cl [Example 1838, 3-[5-Chloro-2-(5,6-dihydro-4H-3,10b-diaza-benzo[e]azulen-9-ylamino)-pyrimidin-4-ylamino]-4-methyl-thiophene-2-carboxylic acid methylamide]

IC50 [1, 5]: < 100 nM
IC50 [2, 6]: < 100 nM
Compound: CC(=O)NC1CC(C)(C)c2ccc(Nc3ncc(Cl)c(Nc4c(F)cccc4C(=O)NCC#N)n3)cc2NC1=O (centres unmarked) [Example 1636, 2-[2-(3-Acetylamino-5,5-dimethyl-2-oxo-2,3,4,5-tetrahydro-1H-benzo[b]azepin-8-ylamino)-5-chloro-pyrimidin-4-ylamino]-N-cyanomethyl-3-fluoro-Benzamide]

IC50 [1, 5]: < 100 nM
IC50 [2, 6]: 100 to 1000 nM
Compound: CN1C(=O)CCC(C)(C)c2cc(Nc3ncc(Cl)c(N[C@H]4[C@@H](C(N)=O)[C@@H]5C=C[C@H]4C5)n3)ccc21 [Example 1571, (1S,2S,3R,4R)-3-[5-Chloro-2-(1,5,5-trimethyl-2-oxo-2,3,4,5-tetrahydro-1H-benzo[b]azepin-7-ylamino)-pyrimidin-4-ylamino]-bicyclo[2.2.1]hept-5-ene-2-carboxylic acid amide]

IC50 [1, 7]: < 100 nM
IC50 [2, 8]: > 10000 nM
Compound: COCCOc1ccc(Nc2nc(Nc3cc4c(cc3OC)CCN(Cc3nccn3C)CC4)ncc2Cl)c(OC)c1 [Example 1175, 5-Chloro-N*4*-[2-methoxy-4-(2-methoxy-ethoxy)-phenyl]-N*2*-[8-methoxy-3-(1-methyl-1H-imidazol-2-ylmethyl)-2,3,4,5-tetrahydro-1H-benzo[d]azepin-7-yl]-pyrimidine-2,4-diamine]

IC50 [1, 3]: 100 to 1000 nM
IC50 [2, 4]: 100 to 1000 nM
Compound: CCN1C(=O)OCCc2ccc(Nc3ncc(Cl)c(Nc4ccccc4C(=O)NC)n3)cc21 [Example 1881, 2-[5-Chloro-2-(5-ethyl-6-oxo-5,6,8,9-tetrahydro-7-oxa-5-aza-benzocyclohepten-3-ylamino)-pyrimidin-4-ylamino]-N-methyl-benzamide]

IC50 [1, 9]: 100 to 1000 nM
IC50 [2, 10]: > 10000 nM
Compound: CCN1CC(=O)N(CC)c2cc(Nc3ncc(Cl)c(N[C@@H]4CCCC[C@H]4NS(C)(=O)=O)n3)c(OC)cc2C1 [Example 736, N,N-{(1R,2R)-2-[5-Chloro-2-(1,4-diethyl-7-methoxy-2-oxo-2,3,4,5-tetrahydro-1H-benzo[e][1,4]diazepin-8-ylamino)-pyrimidin-4-ylamino]-cyclohexyl}-methanesulfonamide]

IC50 [1, 7]: 100 to 1000 nM
IC50 [2, 8]: 1000 to 10000 nM
Compound: CC(C)S(=O)(=O)c1cccc(F)c1Nc1nc(Nc2ccc3c(c2)NC(=O)CCC3)ncc1Cl [Example 1255, 8-{5-Chloro-4-[2-fluoro-6-(propane-2-sulfonyl)-phenylamino]-pyrimidin-2-ylamino}-1,3,4,5-tetrahydro-1-benzazepin-2-one]

IC50 [1, 3]: < 100 nM
IC50 [2, 4]: 1000 to 10000 nM
Compound: CN1CCN(CC2CC2)Cc2ccc(Nc3ncc(Cl)c(N[C@@H]4CCCC[C@H]4NS(C)(=O)=O)n3)cc21 [Example 479, N-{(1R,2R)-2-[5-Chloro-2-(4-cyclopropylmethyl-1-methyl-2,3,4,5-tetrahydro-1H-benzo[e][1,4]diazepin-8-ylamino)-pyrimidin-4-ylamino]-cyclohexyl}-methanesulfonamide]

IC50 [1, 7]: 1000 to 10000 nM
IC50 [2, 8]: > 10000 nM
Compound: COCCN1CCc2cc(Nc3ncc(Cl)c(N[C@@H]4[C@H](C(N)=O)[C@H]5C=C[C@@H]4C5)n3)c(OC)cc2CC1 [Example 1322, (1R,2R,3S,4S)-3-{5-Chloro-2-[8-methoxy-3-(2-methoxy-ethyl)-2,3,4,5-tetrahydro-1H-benzo[d]azepin-7-ylamino]-pyrimidin-4-ylamino}-bicyclo[2.2.1]hept-5-ene-2-carboxylic acid amide]

IC50 [1, 5]: < 100 nM
IC50 [2, 6]: 100 to 1000 nM
Compound: CNC(=O)c1cc(C)cc(C)c1Nc1nc(Nc2ccc3c(c2)CCNC(=O)C3)ncc1Cl [Example 1814, 2-[5-Chloro-2-(2-oxo-2,3,4,5-tetrahydro-1H-benzo[d]azepin-7-ylamino)-pyrimidin-4-ylamino]-3,5,N-trimethyl-benzamide]

IC50 [1, 9]: 100 to 1000 nM
IC50 [2, 10]: 1000 to 10000 nM
Compound: COCCN1CCc2ccc(Nc3ncc(Cl)c(Nc4cccc5c4ncn5C)n3)cc2CC1 [Example 1006, 5-Chloro-N*2*-[3-(2-methoxy-ethyl)-2,3,4,5-tetrahydro-1H-benzo[d]azepin-7-yl]-N*4*-(1-methyl-1H-benzoimidazol-4-yl)-pyrimidine-2,4-diamine]

IC50 [1, 5]: < 100 nM
IC50 [2, 6]: < 100 nM
Compound: CNC(=O)c1c(Cl)sc(Cl)c1Nc1nc(Nc2ccc3c(c2)CN(C)C(=O)CC3)ncc1Cl [Example 1807, 2,5-Dichloro-4-[5-chloro-2-(2-methyl-3-oxo-2,3,4,5-tetrahydro-1H-benzo[c]azepin-8-ylamino)-pyrimidin-4-ylamino]-thiophene-3-carboxylic acid methylamide]

IC50 [1, 9]: < 100 nM
IC50 [2, 10]: > 10000 nM
Compound: NC(=O)C1C2C=CC(C2)C1Nc1nc(Nc2cccc3c2OCCCC3)ncc1Cl (stereo not drawn) [Example 861, (2-exo-3-exo)-3-[5-Chloro-2-(2,3,4,5-tetrahydro-benzo[b]oxepin-9-ylamino)-pyrimidin-4-ylamino]-bicyclo[2.2.1]hept-5-ene-2-carboxylic acid amide]

IC50 [1, 7]: < 100 nM
IC50 [2, 8]: 1000 to 10000 nM
Compound: COc1cc2c(cc1Nc1ncc(Cl)c(Nc3ccccc3S(=O)(=O)N(C)C)n1)CCNC(=O)C2 [Example 1194, 2-[5-Chloro-2-(8-methoxy-2-oxo-2,3,4,5-tetrahydro-1H-benzo[d]azepin-7-ylamino)-pyrimidin-4-ylamino]-N,N-dimethyl-benzenesulfonamide]

IC50 [1, 5]: < 100 nM
IC50 [2, 6]: > 10000 nM
Compound: COc1cc2c(cc1Nc1ncc(Cl)c(N[C@@H]3CCCC[C@H]3NS(C)(=O)=O)n1)CCN(CCO)CC2 [Example 1531, N-((1R,2R)-2-{5-Chloro-2-[3-(2-hydroxy-ethyl)-8-methoxy-2,3,4,5-tetrahydro-1H-3-benzazepin-7-ylamino]-pyrimidin-4-ylamino}-cyclohexyl)-methanesulfonamide]

IC50 [1, 9]: < 100 nM
IC50 [2, 10]: 1000 to 10000 nM
Compound: CCN1CCN(CC)c2cc(Nc3ncc(Cl)c(Nc4ccccc4C(=O)OCCOC)n3)ccc2C1 [Example 713, 2-[5-Chloro-2-(1,4-diethyl-2,3,4,5-tetrahydro-1H-benzo[e][1,4]diazepin-8-ylamino)-pyrimidin-4-ylamino]-benzoic acid 2-methoxy-ethyl ester]
